These results are taken from patent publication US20040053872A1, “New sequences” (priority 2000, published 2004).

Read-outs that look alike come from different tables or passages of the source. Strand notation (5' to 3'): a small letter for the sugar, then the base; units joined by * are phosphorothioate-linked, units joined directly phosphodiester-linked; [ ] holds rarer units or linkages, { } end groups; capitals alone tell only the bases. r = 2'-OH (RNA)

The subject of series [1] is panel of recombinant HIV 1 subtype B RTs. Description: DNAp assay: inhibition of second strand DNA synthesis, whole RT panel. The conditions noted are these: all RTs of the panel; summary of table 2; read-out: IC50, range over all RTs studied (second strand DNA synthesis). The series is classed as biochemical. The source says: (§1) The flourimetric DNA-polymerase assay used is available from Cavidi Tech AB, Uppsala, Sweden. It is based on a short DNA primer analogous to a part of the tRNA^Lys3 sequence. The template is a single stranded deoxynucleotide template with part of the sequence complementary to the primer. The enzyme reaction is dependent on all four deoxynucleotide bases. The thymidine triphosphate is, however, replaced by BrdUTP. The amount of BrdUMP incorporated into DNA during the polymerase reaction is detected with an alkaline phosphatase (Ap) conjugated anti-BrdU monoclonal antibody. An Ap substrate, 4-methylumbelliferyl phosphate, is finally used for fluorimetric product detection.
(ii) Protocol for determination of inhibition of second strand synthesis on a variable DNA template: The inhibition studies were performed in a modified DNA polymerase assay. […] The enzyme reaction was initiated by addition of 75 μl aliquots of the enzyme/inhibitor mixture to each well of a microtiter plate containing 75 μl DNA polymerase reaction mixture per well.
The results, which are summarised in table 2, were rather similar to those found for inhibition of reverse transcription (table 1).

Series [2] shares this test system. Description: RT binding inhibition (BIC) assay, whole RT panel. The following applies: all conditions studied. As for the experimental part:
(§2) (iii) Protocol for RT binding inhibition (BIC) assay: The study was performed in a modified DNA polymerase assay. The inhibitors were serially diluted in five steps, enzyme dilution was added and the enzyme/inhibitor mixtures were incubated for 30 minutes at 33° C. Aliquots of the enzyme/inhibitor mixture were transferred to each well of a microtiter plate containing either immobilised primer, or primer/template. The enzyme was allowed to bind to the immobilised polymer for 90 min at 33° C. The amount of RT used was standardised to an activity corresponding to 40-60 pg (3.3-5.0×10^−16 mol) reference HIV-1 RT per well. The plates were then washed to remove unbound enzyme whereupon the amount of bound enzyme was determined by addition of the appropriate reaction solution for polymerisation (i e a reaction solution devoid of primer for studies of primer binding and a reaction solution devoid of both primer and template for studies of binding to primed template). The polymerase reaction was allowed to proceed for 3 hours at 33° C., whereupon the reaction was terminated by a wash of the plate.
(§3) The capacity of the indicated substances to inhibit the binding to primer or to primed DNA template of a panel of recombinant HIV 1 subtype B RTs was studied according to “Protocol for RT binding inhibition (BIC) assay” (protocol (iii) above).

Series [3] addresses T1, recombinant HIV-1 RT E478Q (Human immunodeficiency virus type 1 group M subtype B, UniProt P03366, E1077Q).
T1 construct: performed by recombinant HIV-1 RT:s with defined
The experiment in a line: RT assay: inhibition of RNA dependent DNA polymerisation (modified Lenti RT assay). The series is classed as biochemical. The conditions noted are these: read-out: IC50 of indicated inhibitor in RT assay. As for the experimental part:
The flourimetric RT assay (Cavidi® Lenti RT activity kit), available from Cavidi Tech, Uppsala, Sweden, was used for the determination of RT activity. In short, poly(rA) covalently bound to the wells of a 96 well microtiter plate serves as template for the incorporation of 5-bromodeoxyuridine 5′-triphosphate (BrdUTP) during the reverse transcription step at 33° C. The amount of bromodeoxyuridine monophosphate (BrdUMP) incorporated into DNA is detected with an alkaline phosphatase (Ap) conjugated, anti-BrdU monoclonal antibody. An Ap substrate, 4-methylumbelliferyl phosphate, is finally used for fluorimetric product detection.
(i) Protocol for determination of inhibition of RNA dependent DNA polymerisation: The inhibition studies were performed in a modified Lenti RT assay. The inhibitors were serially diluted in five steps, whereupon enzyme dilution was added and the enzyme/inhibitor mixtures were incubated for 30 minutes at 33° C. The enzyme reaction was initiated by addition of 100 μl aliquots of the enzyme/inhibitor mixture to each well of a microtiter plate containing 100 μl RT reaction mixture per well. The polymerase reaction was allowed to proceed for 3 hours at 33° C., whereupon the reaction was terminated by a wash of the plate. […] The amount of RT used was standardised to an activity corresponding to 90-130 pg (7-10×10^−16 mol) reference HIV-1 RT per well
The capacity of the indicated substances to inhibit the enzymes in a panel of recombinant HIV 1 subtype B RTs was studied according to “Protocol for determination of inhibition of RNA dependent DNA polymerisation” (protocol (i) above). The final nucleotide substrate (BrdUTP) concentration was 0.35 μM, and the primer (odT22) amount was 0.03 ng per well.
The RT reaction time used was 3 hours and the results are depicted in FIG. 8 (A-C).

For series [4], the target named is recombinant HIV-1 RT, ref RT (HIV type B, clone BH 10) (Human immunodeficiency virus type 1 group M subtype B, UniProt P03366). The arrangement: performed by recombinant HIV-1 RT:s with defined. The following applies: immobilised primer/template, binding 90 min at 33° C., read-out: Inhibition of binding to template/primer (BIC50). As for the experimental part: as §2, §3

Series [5] concerns the target T2, recombinant HIV-1 RT L100I (Human immunodeficiency virus type 1 group M subtype B, UniProt P03366, L699I).
T2 construct: performed by recombinant HIV-1 RT:s with defined
The series is classed as biochemical. The conditions noted are these: second strand DNA synthesis, preincubation 30 minutes at 33° C., 3 hours, read-out: IC50 of indicated inhibitor in DNAp assay.
Description: as §1
(§4) (ii) Protocol for determination of inhibition of second strand synthesis on a variable DNA template: The inhibition studies were performed in a modified DNA polymerase assay. The inhibitors were serially diluted in five steps, enzyme dilution was added and the enzyme/inhibitor mixtures were incubated for 30 minutes at 33° C. The enzyme reaction was initiated by addition of 75 μl aliquots of the enzyme/inhibitor mixture to each well of a microtiter plate containing 75 μl DNA polymerase reaction mixture per well. The polymerase reaction was allowed to proceed for 3 hours at 33° C. whereupon the reaction was terminated by a wash of the plate. […] The amount of RT used was standardised to an activity corresponding to 40-60 pg (3.3-5.0×10^−16 mol) reference HIV-1 RT per well.
(§5) The capacity of the indicated substances to inhibit each enzyme in a panel of recombinant HIV 1 subtype B RTs was studied according to “Protocol for determination of inhibition of second strand synthesis on variable DNA template” (protocol (ii) above).

Series [6] deals with T3, recombinant HIV-1 RT K103N/E478Q (Human immunodeficiency virus type 1 group M subtype B, UniProt P03366, E1077Q/K702N).
T3 construct: performed by recombinant HIV-1 RT:s with defined
The series is classed as biochemical. The conditions noted are these: second strand DNA synthesis, preincubation 30 minutes at 33° C., 3 hours, read-out: IC50 of indicated inhibitor in DNAp assay.
Description: as §1, §4, §5

Series [7] deals with T1, recombinant HIV-1 RT E478Q. It counts as biochemical. The conditions noted are these: second strand DNA synthesis, preincubation 30 minutes at 33° C., 3 hours, read-out: IC50 of indicated inhibitor in DNAp assay.
Description: as §1, §4, §5

[8] abbreviates: enzyme/inhibitor preincubated 30 minutes at 33° C., BrdUTP 0.35 μM, odT22 0.03 ng per well, 3 hours.

On to “substance 198: 15-mer RNA phosphorothioate with the base sequence of tRNALys3 anticodon stem and loop, SEQ ID NO:7 (rC*rA*rG*rA*rC*rU*rU*rU*rU*rA*rA*rU*rC*rU*rG) [reference compound]”, for which the IC50 in series [1] was 550 to 1000 nM; in series [3] (setting [8]), 320 nM; in series [4], 900 nM; in series [5], 220 nM; in series [6], 1000 nM; in series [7], 1000 nM. Further, the “Capacity to prevent RT binding to primer or primed template” value in series [2] is recorded as “significantly less capacity to prevent RT binding”.

In the case of “substance 199: 35-mer RNA molecule having the sequence set out in SEQ ID NO:5; similar to SEQ ID NO:4 with some naturally occurring nucleotide derivatives (GCUCAGNCGGNAGAGCANCAGACUUUUAANCUGAN; RNA, backbone, methylation of C and the base at N not given here; naturally occurring modified nucleosides at n positions)”, the IC50 in series [1] is 36 to 51 nM; in series [3] (RT and inhibitor added directly to the assay mixture without preincubation), 11 nM; in series [3] (setting [8]), 6 nM; in series [4] it was 7 nM; in series [5], 36 nM; in series [6], 51 nM. In addition, the IC50 in series [7] was determined as 34 nM. Moreover, in series [2], the “Capacity to prevent RT binding to primer or primed template” value is reported as “had the capacity to prevent RT binding to either primer alone or to primed template”.
